Test results reported in US20230372318A1, “METHODS FOR TREATING A SUBJECT HAVING MULTIPLE SYSTEM ATROPHY” (Theravance Biopharma R&D IP, LLC, priority 2022, published 2023).
Entries after “also recorded” stand apart in the source; their conditions may differ.

Tests used:
rat native NET = biological target: T1, rat native NET (Rattus norvegicus, UniProt Q63380); experiment: Radioligand binding, [3H]-nisoxetine, rat cortical membranes; details: mean (95% confidence intervals)
T1 construct: human recombinant and rat native monoamine transporters; from tissue; host or cells: rat cerebral cortex (membranes; synaptosomes)
Text: The in vitro pharmacology of ampreloxetine at human recombinant and rat native monoamine transporters was characterized as described in Smith et al., Inter. J. Neuropsychopharmcol. (2015) 1-11; and Tsuruda et al., J. Pharmacol. Toxicol. Meth. (2010) 61:192-204. See also, e.g., U.S. Pat. Nos. 8,304,432 B2 and 8,304,433 B2. Radioligands were sourced commercially (Perkin Elmer LifeSciences or GE Healthcare Life Sciences).
Briefly, membranes prepared from HEK293 (Human Embryonic Kidney 293) or CHO-K1 (Chinese Hamster Ovary-K1) cells stably transfected with human recombinant SERT (HEK293-hSERT), NET (HEK293-hNET), or DAT (CHO-K1-hDAT) were incubated for 1 hr at 22° C. in the absence, or presence, of 4-[2-(2,4,6-trifluorophenoxymethyl)phenyl]piperidine and [^3H]-citalopram (1.0 nM) for SERT, [^3H]-nisoxetine (2.0 nM) for NET, and [^3H]-WIN35428 (3.0 nM) for DAT in 50 mM Tris-HCl, 120 mM NaCl, 5 mM KCl, 0.025% BSA, 100 μM ascorbic acid, pH 7.4. Rat cortical membrane preparations were incubated with [^3H]-citalopram (2.0 nM) for SERT or [^3H]-nisoxetine (4.0 nM) for NET for 1 hr at 22° C. […] Binding and uptake assays were terminated by rapid filtration and radioactivity determined by liquid scintillation spectroscopy. […] Selectivity for NET (rounded to one significant figure) was determined as follows: […]

norepinephrine (NE) = experiment: Plasma norepinephrine levels in Examples 6 and 7; format: in vivo, human; details: for NE at End of Ex. 6/Start of Ex. 7: 4 weeks; for NE at End of Ex. 6/Start of Ex. 7 / NE on Day 29 of Ex. 7 Open Label: mean ± SD
Procedure: For pharmacodynamic assessments, blood samples for pharmacodynamic markers (including [dihydroxyphenylglycol] DHPG and NE) were collected after the subject had been seated for approximately 30 minutes.
Blood samples for pharmacodynamic markers ([dihydroxyphenylglycol] DHPG and NE) were collected at select study visits as defined in the Schedule of Study Procedures after the subject had been seated for 30 minutes. This was applicable to all consenting subjects.
Moreover, it has also been discovered that the supine norepinephrine level in a subject having multiple system atrophy continues to increase for at least about 8 weeks when the subject is treated daily with ampreloxetine as shown in Table 8:
Before treatment with ampreloxetine, supine norepinephrine (NE) levels in subjects with MSA are less than about 350 pg/mL. After about 8 weeks of treatment, supine norepinephrine levels are greater than about 500 pg/mL. Supine norepinephrine levels were determined using standard procedures (see, e.g., Goldstein et al., Annals of Neurology, 1989:26(4) 558-563; and Palma et al., Neurology, 2018:91(16) e1539-e1544).

[1] = human, cited from earlier work
[2] = system: subjects with attention-deficit hyperactivity disorder and fibromyalgia; details: 5 mg or 20 mg once per day for 6 weeks; cited from earlier work
[3] = system: subjects with symptomatic nOH; details: cited from earlier work
[4] = system: subjects with primary autonomic failures (MSA, PD, or PAF) and symptomatic nOH; experiment: Phase 3 4-week clinical study in symptomatic nOH (Example 6)
Text: The first Phase 3 study was a randomized, double-blind, placebo-controlled, parallel-group, multicenter study designed to evaluate its efficacy, safety, and tolerability in subjects with primary autonomic failures (MSA, PD, or PAF) and symptomatic nOH after 4 weeks of treatment.
This study was a Phase 3, randomized, double-blind, placebo-controlled, parallel-group, multicenter study to evaluate efficacy, safety, and tolerability of ampreloxetine (administered as ampreloxetine hydrochloride) in subjects with primary autonomic failures (MSA, PD, or PAF) and symptomatic nOH after four weeks of treatment. Subjects participated in the study for approximately 10 weeks.
Subjects were randomized in a 1:1 ratio to each of either ampreloxetine or placebo group stratified by the subject's disease type (MSA, PD, or PAF).
Subjects were randomized in a 1:1 ratio to receive either ampreloxetine (test product) or placebo (reference product) once daily through the end of the treatment period.
Subjects randomized to receive ampreloxetine began taking study medication on Day 2 in the morning at a dose of 10 mg and continued to take this dose once daily through the end of the treatment period.
The study consisted of three periods: (i) 4-week screening, (ii) 4-week randomized treatment, and (iii) 2-week follow up.
Following randomization and completion of study assessments, the subject received a single 10-mg dose of ampreloxetine (or matching placebo) once daily (QD) for the remaining double-blind treatment period.
The efficacy assessments for this study included: OHQ; PGI-C; and incidence of falls. The exploratory assessments included: Orthostatic standing test; PK and pharmacodynamics; Non-Motor Symptom Scale (NMSS); EQ-5D-5L; Hospital Anxiety and Depression Scale (HADS); and Burden Scale for Family Caregivers-short version (BSFC-s).
The primary study endpoint was the change from baseline in OHSA #1 (dizziness, lightheadedness, feeling faint, or feeling like blacking out) at Week 4.
The primary efficacy evaluation was the change from baseline of OHSA #1 at Week 4. Baseline was defined as Day 1 pre-dose measurement. A mixed model for repeated measures (MMRM) was fitted to compare treatments. The model included fixed effect class terms of treatment, baseline disease type (MSA, PD, PAF), week, and continuous covariate of baseline OHSA #1 score, a random subject effect, with an unstructured covariance structure using the FAS.

[5] = MSA subjects, Week 4, 10 mg, N 33

T1 sequence (Q63380 1-617): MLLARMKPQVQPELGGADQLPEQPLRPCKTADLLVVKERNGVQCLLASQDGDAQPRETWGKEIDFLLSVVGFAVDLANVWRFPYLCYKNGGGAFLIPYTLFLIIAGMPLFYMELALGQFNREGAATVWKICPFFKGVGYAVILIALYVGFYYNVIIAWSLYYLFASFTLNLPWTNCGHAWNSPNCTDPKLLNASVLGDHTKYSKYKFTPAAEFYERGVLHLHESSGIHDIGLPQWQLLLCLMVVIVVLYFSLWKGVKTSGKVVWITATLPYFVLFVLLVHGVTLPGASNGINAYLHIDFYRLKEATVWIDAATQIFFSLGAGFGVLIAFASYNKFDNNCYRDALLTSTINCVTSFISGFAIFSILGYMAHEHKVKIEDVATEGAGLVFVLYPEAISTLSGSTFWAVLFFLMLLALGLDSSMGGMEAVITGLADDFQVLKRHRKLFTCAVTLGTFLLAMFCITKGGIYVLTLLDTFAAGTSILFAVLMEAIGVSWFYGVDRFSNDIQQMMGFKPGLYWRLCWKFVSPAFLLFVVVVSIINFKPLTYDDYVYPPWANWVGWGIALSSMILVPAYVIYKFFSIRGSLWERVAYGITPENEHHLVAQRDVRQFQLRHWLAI

Fc1cc(F)c(OCc2ccccc2C2CCNCC2)c(F)c1 [Ampreloxetine, 4-[2-(2,4,6-trifluorophenoxymethyl)phenyl]piperidine]
Transporter Binding: pKi, NET (rat native NET): 8.7 (8.5, 8.9) | NE at End of Ex. 6/Start of Ex. 7 (norepinephrine (NE); MSA, Example 6 ampreloxetine 10 mg QD group, start of Ex. 6: 280 ± 138): 439 ± 250 pg/mL | NE on Day 29 of Ex. 7 Open Label (norepinephrine (NE); MSA, Example 6 ampreloxetine 10 mg QD group, about 8 weeks): 539 ± 361 pg/mL | NE on Day 29 of Ex. 7 Open Label (norepinephrine (NE); MSA, Example 6 placebo group, received ampreloxetine in open-label part, start of Ex. 7: 291 ± 173): 557 ± 298 pg/mL | NE at End of Ex. 6/Start of Ex. 7 (norepinephrine (NE); PAF, Example 6 ampreloxetine 10 mg QD group, start of Ex. 6: 232 ± 110): 357 ± 204 pg/mL | NE on Day 29 of Ex. 7 Open Label (norepinephrine (NE); PAF, Example 6 ampreloxetine 10 mg QD group, about 8 weeks): 455 ± 238 pg/mL | NE on Day 29 of Ex. 7 Open Label (norepinephrine (NE); PAF, Example 6 placebo group, received ampreloxetine in open-label part, start of Ex. 7: 156 ± 82): 267 ± 87 pg/mL | NE at End of Ex. 6/Start of Ex. 7 (norepinephrine (NE); PD, Example 6 ampreloxetine 10 mg QD group, start of Ex. 6: 340 ± 237): 407 ± 154 pg/mL | NE on Day 29 of Ex. 7 Open Label (norepinephrine (NE); PD, Example 6 ampreloxetine 10 mg QD group, about 8 weeks): 552 ± 270 pg/mL | NE on Day 29 of Ex. 7 Open Label (norepinephrine (NE); PD, Example 6 placebo group, received ampreloxetine in open-label part, start of Ex. 7: 340 ± 266): 443 ± 157 pg/mL | Supine norepinephrine levels (norepinephrine (NE); subjects with MSA, after about 8 weeks of treatment, before treatment less than about 350): greater than 500 pg/mL | Dose proportionality of Cmax and AUC ([1]; administered doses): linear with near dose proportional exposure | Time to steady state ([1]; once daily dosing): ≤ 6 days | Safety and tolerability [2]: generally well tolerated with no clinically significant safety signals | Improvement in standing time ([3]; Part A, 4 hours after dosing at 10 mg): approximately 100 seconds | Dose response of single ascending doses ([3]; Part A, up to 20 mg): no dose response was observed | SBP following 3 minutes of standing ([3]; Part B, up to 15 mg, 4- and 7-hours post-dose): sustained increase in SBP over baseline | Improvement from baseline of at least 2 points in OHSA #1 score ([3]; Part C, open-label 3-20 mg once-daily up to 20 weeks): A large proportion of subjects met this endpoint | Deaths ([4]; 10 mg once daily, 4 weeks): no deaths were reported | Supine hypertension ([4]; 10 mg once daily, 4 weeks): no signal for supine hypertension | Serious adverse events, number of subjects ([4]; 10 mg once daily, 4 weeks, none considered related to study drug): four | Anxiety Total Score, Change from Baseline, LS Mean Difference ([4]; MSA subjects, Week 4, 10 mg vs placebo, P-value 0.136): −1.09 | Anxiety Total Score, Change from Baseline, LS Mean [4, 5]: −0.75 | Anxiety Total Score, Change from Baseline, Mean [4, 5]: −0.67 | Anxiety Total Score, Change from Baseline, Median [4, 5]: −1.00 | Primary endpoint: change from baseline of OHSA #1 score vs placebo ([4]; Week 4, 10 mg once daily, MSA, PD or PAF): did not meet its primary endpoint; also recorded: did not meet the primary endpoint
